Experimental data published in PubChem BioAssay AID624344 (Sanford-Burnham Center for Chemical Genomics, 2012).
Activity calls are given as the source filed them. The rule behind the calls is not given here.

Tests used:
[1] = inhibitors of PAF-induced NFkB signaling in CF airway cells, dose response, cell-based, uHTS hits, panel, cytotoxicity readout (AID 624344); conditions: CF bronchial epithelial cells, PAF-induced NFkB reporter inhibition; with PAF, mean of runs
[2] = system: Cytotoxicity; experiment: as above; conditions: CF bronchial epithelial cells, mean of runs

Row | SMILES | IC50 [1] | IC50 [2]
1 | NC(=O)c1c(Br)n(C2OC(CO)C(O)C2O)c2ncnc(N)c12 (configuration not stated) | 2.03 µM | 3.07 µM
2 | O=C(/C=C/c1cccc([N+](=O)[O-])c1)NC(=S)Nc1ccc(CN2CCOCC2)cc1 | 5.19 µM | 19.8 µM
3 | CN(C)C=Nc1c(C(=O)c2ccccc2)sc2nccc(N(C)C)c12 | 10.9 µM | > 79 µM (inactive)
4 | CC(C)c1ccccc1NC(=O)COC(=O)c1c2c(nc3ccccc13)CCN(Cc1ccccc1)C2 | 6.98 µM | 21.2 µM
5 | CC(=O)OC1CCC2(C)C(CCC3C4CC=C(C(C)=O)C4(C)OC(=O)CC32)C1 (configuration not stated) | 0.972 µM | 5.07 µM
6 | CC(=O)Oc1ccccc1C(=O)Oc1ccc(/C=N/n2cnnc2)cc1 | inactive | 59.5 µM (inactive)
7 | COc1cc(CCc2ccccc2)c(C(=O)O)c(O)c1C/C=C(/C)CCC=C(C)C | 6.26 µM | 14.7 µM
8 | CCCc1nnc(NC(=O)c2nc(S(=O)(=O)Cc3ccc(C)cc3)ncc2Cl)s1 | 1.23 µM | 3.08 µM
9 | CN(C)CCCN(C(=O)CCSc1ccccc1)c1nc2cc3c(cc2s1)OCO3 | 9.46 µM | 26.1 µM
10 | CCCC1/C(=N/O)CC(c2ccccc2)NC1c1ccccc1 (configuration not stated) | 5.52 µM | 6.23 µM
11 | OCCCNc1ncnc2scc(-c3ccc(Cl)cc3)c12 | 2.35 µM | 32.6 µM
12 | COc1cccc2c(SCC(=O)N/N=C/c3ccccc3)cc(C)nc12 | 6.95 µM | 38.6 µM
13 | CN(c1cccc(Cl)c1)S(=O)(=O)c1cccc(C(=O)Nc2nc3ccccc3[nH]2)c1 | 6.19 µM | 12.2 µM
14 | COc1ccc(-n2nnnc2C(CCc2ccccc2)N2CCC(n3c(=O)[nH]c4ccccc43)CC2)cc1 (configuration not stated) | 6.25 µM | 11.1 µM
15 | Cc1ccc(-c2onc3ccc(C(=O)/C=C/N(C)C)cc23)cc1 | 9.39 µM | 22.9 µM
16 | COc1ccc(-n2nnnc2C(c2cccc(OC)c2OC)N2CCC(n3c(=O)[nH]c4ccccc43)CC2)cc1 (configuration not stated) | 6.65 µM | 9.39 µM
17 | CCOC(=O)C1=C(CC)Nc2ccccc2N=C1NC(=O)Nc1ccc(Cl)c(Cl)c1 | 2.74 µM | 6.06 µM
18 | O=C(COC(=O)c1ccc2[nH]c3c(c2c1)CCCC3)Nc1ccccc1Cl | inactive | 36.6 µM
19 | O=C(Nc1nnc(C(F)(F)F)s1)c1ccc(Br)s1 | 2.28 µM | 27.8 µM
20 | N#Cc1c(Br)n(C2OC(CO)C(O)C2O)c2ncnc(N)c12 (configuration not stated) | 0.444 µM | 3.58 µM
21 | O=C(Nc1ccc2c(c1)OCCO2)c1cc(-c2ccccn2)nc2ccc(Br)cc12 | inactive | 49.4 µM

Row | SMILES | IC50 [1] | IC50 [2]
22 | Cc1cccc(N2CCN(C(=O)CCn3c(=S)[nH]c4cc5c(cc4c3=O)OCO5)CC2C)c1 (configuration not stated) | 6.2 µM | 18.5 µM
23 | COc1ccc2c(=O)cc(-c3ccncc3)oc2c1OC | 3.97 µM | 13.6 µM
24 | Cc1cc2cc(CCNC(=O)C(=O)c3c[nH]c4ccccc34)c(=O)[nH]c2cc1C | 5.72 µM | 24.3 µM
25 | O=C(CCC1COc2ccccc2O1)Nc1ccc(Cl)cn1 (configuration not stated) | 10.2 µM | 50.9 µM (inactive)
26 | CCN(CC)CCN(C(=O)CCS(=O)(=O)c1ccccc1)c1nc2c(C)cc(C)cc2s1 | 5.98 µM | 8 µM
27 | CCN1CCN(Cc2ccc(NC(=O)c3ccc(C)c(NC(=O)c4ccno4)c3)cc2C(F)(F)F)CC1 | < 0.15 µM | > 79 µM (inactive)
28 | COc1cc(/C=N/NC(=O)Nc2cccc3nsnc23)cc(OC)c1OC | 2.53 µM | 14.7 µM
29 | COc1cc(NC(=O)c2csc(-c3ccncc3)n2)cc(C(=O)Nc2cccc(C(F)(F)F)c2)c1 | 4.32 µM | 46 µM
30 | Cc1ccc(NC(=O)/C=C/c2ccco2)nc1 | 8.27 µM | > 79 µM (inactive)
31 | Cc1ccc(Cl)cc1-c1cc(C(=O)NCc2cc(C(F)(F)F)cc(C(F)(F)F)c2)[nH]n1 | 8.92 µM | 16.6 µM
32 | CCN(CC(=O)Nc1ccc(OC)cc1)C(=O)c1cc(-c2cccs2)nn1-c1ccccc1 | 5.29 µM | 7.56 µM
33 | O=C(NCCc1ccc(F)cc1)c1coc(=O)c(Br)c1 | 4.34 µM | 21.2 µM
34 | CC(C)CN=C(NS(=O)(=O)c1ccccc1)C(Cl)(Cl)Cl | 2.93 µM | 44.5 µM
35 | O=C1Nc2ccccc2/C1=C/c1ccnc2ccccc12 | 5.85 µM | 36.3 µM
36 | COc1ccc(OC)c(Nc2ncnc3ccc(Br)cc23)c1 | 4.6 µM | 13.8 µM
37 | Cc1nn(-c2ccccc2)c(Cl)c1C(=O)N1CCN(c2ncnc3c2cnn3-c2ccccc2)CC1 | 3.18 µM | 1.42 µM
38 | CC1=C(C(=O)OCc2ccc3c(c2)OCO3)C(c2ccc(O)c([N+](=O)[O-])c2)NC(=O)N1 (configuration not stated) | 1.71 µM | > 79 µM (inactive)
39 | COc1ccc(S(=O)(=O)N(C(C)=O)c2ccc(OC(C)=O)c3ccccc23)cc1[N+](=O)[O-] | 3.38 µM | 6.46 µM
40 | COc1cc(-c2cc(C(=O)Nc3ccc(S(=O)(=O)NCc4ccco4)cc3)c3ccccc3n2)cc(OC)c1OC | 3.96 µM | 7.44 µM
41 | CCc1cc(SC#N)cc(C)c1NC(=O)CCl | 5.47 µM | 43.5 µM
